Laboratory results: patent US20060258599A1, “Methods and composition for the treatment of cystic fibrosis and related illnesses” (priority 2005, published 2006)
Where two headings read alike, the source gives them in different places.

Assays:
[1] = system: individual who is a carrier of the CF gene; assay: Fatty acid profile blood tests before and after 10-day oral isothiocyanate (individual study); type: in vivo, human
Procedure: Example 1. Individual study based on 10 mg consumption of BITC. An isothiocyanate of 10 mg was taken orally per day for 10 days by an individual who is a carrier of the CF gene. Blood tests were performed before and after the 10-day study to determine the fatty acid levels before and after administration of the isothiocyanate.

[2] = system: glutathione S-transferase; settings: cited from earlier work; for glutathione S-transferase activity: HT29 cells
[3] = +10 days vs baseline, 10 mg orally per day

S=C=NCc1ccccc1 [BITC, benzyl isothiocyanate]
Arachidic Acid, % Change [1, 3]: −8.93% | Arachidonic Acid, % Change [1, 3]: −3.31% | DHA C22:6W3, % Change [1, 3]: 36.29% | DPA C22 6W3, % Change [1, 3]: −5.19% | DPA C22:6W6, % Change [1, 3]: −8.7% | DTA C22 4W6T, % Change [1, 3]: 6.45% | Docosanoic Acid C22:0, % Change [1, 3]: 22.59% | Docosanoic Acid C22:1, % Change [1, 3]: 0% | EPA, % Change [1, 3]: 18.57% | Hexacosanoic Acid C24:0, % Change [1, 3]: 33.33% | Hexacosanoic Acid C28:1, % Change [1, 3]: 29.17% | Mead Acid, % Change [1, 3]: 0% | Nervonic Acid, % Change [1, 3]: −2.47% | Phytanic Acid, % Change [1, 3]: 18.8% | Priatanic Acid, % Change [1, 3]: 11.11% | Tetracosanoic Acid, % Change [1, 3]: 24.6% | Tiete Tebrana Ratio, % Change [1, 3]: 0% | Total Fatty Acids, % Change [1, 3]: 1.87% | Total Monounsaturated, % Change [1, 3]: 12% | Total Polyunsaturated, % Change [1, 3]: 4.35% | Total Saturated, % Change [1, 3]: 0% | Total w3, % Change [1, 3]: 20% | Total w61, % Change [1, 3]: 2.44% | h-g-Linoleic Acid, % Change [1, 3]: −9.88% | Tiete Tebrana Ratio, +10 days ([1]; blood test after 10 mg orally per day for 10 days, baseline 0.031): 0.031 | Priatanic Acid, +10 days ([1]; blood test after 10 mg orally per day for 10 days, baseline 0.09): 0.1 | Hexacosanoic Acid C24:0, +10 days ([1]; blood test after 10 mg orally per day for 10 days, baseline 0.3): 0.4 | Hexacosanoic Acid C28:1, +10 days ([1]; blood test after 10 mg orally per day for 10 days, baseline 0.48): 0.62 | Total w3, +10 days ([1]; blood test after 10 mg orally per day for 10 days, baseline 0.5): 0.6 | Phytanic Acid, +10 days ([1]; blood test after 10 mg orally per day for 10 days, baseline 1.33): 1.58 | Total Monounsaturated, +10 days ([1]; blood test after 10 mg orally per day for 10 days, baseline 2.5): 2.8 | Docosanoic Acid C22:1, +10 days ([1]; blood test after 10 mg orally per day for 10 days, baseline 3): 3 | Total Saturated, +10 days ([1]; blood test after 10 mg orally per day for 10 days, baseline 3.5): 3.5 | Total w61, +10 days ([1]; blood test after 10 mg orally per day for 10 days, baseline 4.1): 4.2 | Total Polyunsaturated, +10 days ([1]; blood test after 10 mg orally per day for 10 days, baseline 4.6): 4.8 | Total Fatty Acids, +10 days ([1]; blood test after 10 mg orally per day for 10 days, baseline 10.7): 10.9 | DPA C22:6W6, +10 days ([1]; blood test after 10 mg orally per day for 10 days, baseline 23): 21 | Mead Acid, +10 days ([1]; blood test after 10 mg orally per day for 10 days, baseline 25): 25 | DTA C22 4W6T, +10 days ([1]; blood test after 10 mg orally per day for 10 days, baseline 31): 33 | Tetracosanoic Acid, +10 days ([1]; blood test after 10 mg orally per day for 10 days, baseline 44.3): 55.2 | Arachidic Acid, +10 days ([1]; blood test after 10 mg orally per day for 10 days, baseline 56): 51 | Docosanoic Acid C22:0, +10 days ([1]; blood test after 10 mg orally per day for 10 days, baseline 60.2): 73.8 | EPA, +10 days ([1]; blood test after 10 mg orally per day for 10 days, baseline 70): 83 | DPA C22 6W3, +10 days ([1]; blood test after 10 mg orally per day for 10 days, baseline 77): 73 | Nervonic Acid, +10 days ([1]; blood test after 10 mg orally per day for 10 days, baseline 81): 79 | h-g-Linoleic Acid, +10 days ([1]; blood test after 10 mg orally per day for 10 days, baseline 243): 219 | DHA C22:6W3, +10 days ([1]; blood test after 10 mg orally per day for 10 days, baseline 248): 338 | Arachidonic Acid, +10 days ([1]; blood test after 10 mg orally per day for 10 days, baseline 847): 819 | effect on glutathione S-transferase activity (in words) ([2]; HT29 cells cultures exposed to BITC): statistically significant increase | glutathione S-transferase activity ([2]; 5 μmol/L of BITC): ~0.51 μmol min^−1 mg proteins^−1 | glutathione S-transferase activity ([2]; 25 μmol/L of BITC): ~0.74 μmol min^−1 mg protein^−1
